Source: patent US20060030616A1, “Anhydride modified cantharidin analogues useful in the treatment of cancer” (priority 1998, published 2006)
Read-outs that look alike come from different tables or passages of the source.

Legend:
HL60 cells [1] = assay: Cell cycle analysis, flow cytometry of propidium iodide stained cells; assay type: cell-based, human
Experimental: (§1) The cells are fixed in 70% ethanol and stored at −20° C. until analysis is performed (1-2 weeks). After fixing, the cells are pelleted and incubated in PBS containing propidium iodide ([…]) and RNase A (200 mg/ml) for at least 30 min at room temperature. The samples (2×10^4 events) are analysed using a Becton Dickson FACScan, fluorescence is collected in fluorescence detector 2 (FL2), filter 575/30 nm band pass. Cell cycle distribution is assessed using Cell Quest software (Becton Dickson).
(§2) The ability of the protein phosphatase inhibitors to abrogate the G1 or G2 checkpoint of the cell cycle may be determined by cell cycle analysis using flow cytometry. Briefly, asynchronous cell cultures are harvested 18 h after 6 Gy irradiation and/or 12 h incubation with the protein phosphatase inhibitor. Depending upon the p53 status of the cell line, radiation treatment alone will induce arrest in either G1 and/or G2 phase of the cell cycle.
(§3) Data shown in Table 2 and FIG. 4 show the cell cycle response of L1210, HL60, HT29 and HCT116 cells to cantharidin and the new cantharidin analogues MK-2 and MK-4 after 12 h exposure. In summary, cantharidin and MK-2 produced a similar response and induced G2 arrest in all four cell lines tested. […] HL60 and HCT116 cells. […] The magnitude of the cell cycle arrest induced by these drugs directly correlated with their cytotoxicity in the respective cell lines. […] The cytotoxicity of the […]

L1210 cells [2] = assay: as above; assay type: cell-based, murine
Experimental: as §1, §2, §3

nine cancer cell lines = assay: MTT cytotoxicity assay, 72 h, ranges over cell line panel; assay type: cell-based
Experimental: (§4) Cells in a subconfluent phase are transferred to 96-well microtitre plates. L1210 cells are plated at a density of 1000 cells/well in 100 μl medium, while all other cell lines are plated at a density of 2000-25000 cells/well. The cells are left for 24 h prior to treatment to ensure exponential growth has been achieved, 24 h after plating (day 0), 100 μl of phosphatase inhibitor is added to each well, control wells received 100 μl of medium only. Drug exposure time is 72 h (day 3). The effect of phosphatase inhibition is tested in triplicate over a concentration range of […]−1×10^−8 M. Growth inhibitory effects are evaluated using the MTT assay and absorbance read at […]. The IC50 is the drug concentration at which cell growth is 50% inhibited based on the difference of optical density on day 0 and day 3 of drug exposure. Cytotoxicity is evaluated using a spectrophotometric assay which determines the percentage of cell growth following exposure of the cells to various concentrations of the phosphatase inhibitors for a period of 72 hours. The subsequent dose response curve is used to calculate IC50 values (the drug concentration at which cell growth is 50% inhibited).
(§5) Anti-cancer screening of the protein phosphatase inhibitors is assessed using the MTT assay. This assay determines cell viability by the ability of mitochondrial dehydrogenase to produce formazan crystals from 3-(4,5-dimethylthiazol-2-yl)-2,5-diphenyltetrazolium bromide. The viable cell number/well is directly proportional to the production of formazan, which following solubilization, can be measured spectrophotometrically (540 nm). This technique is also used by the National Cancer Institute to screen for new anticancer agents.
(§6) As described herein a number of cantharidin analogues have been synthesised and tested for their anticancer activity in nine cancer cell lines using the MTT assay after 72 h exposure. These new analogues are shown in FIG. 2 and have been designated MK-1 through to MK-9.

HCT116 cells = assay: MTT cytotoxicity assay, 72 h; assay type: cell-based, human; conditions: HCT116, p53 wt; read-out: IC50 (mean ± SE) after 72 h continuous exposure
Experimental: as §4, §5, §6

WiDr cells = assay: MTT cytotoxicity assay, 72 h; assay type: cell-based, human; conditions: p53 mt, read-out: IC50 (mean ± SE) after 72 h continuous exposure
Experimental: as §4, §5, §6

SW480 cells = assay: MTT cytotoxicity assay, 72 h; assay type: cell-based, human; conditions: SW480, p53 mt; read-out: IC50 (mean ± SE) after 72 h continuous exposure
Experimental: as §4, §5, §6

HL60 cells [3] = assay: MTT cytotoxicity assay, 72 h; assay type: cell-based, human; conditions: HL60, p53 nul; read-out: IC50 (mean ± SE) after 72 h continuous exposure
Experimental: as §4, §5, §6

143B cells = assay: MTT cytotoxicity assay, 72 h; assay type: cell-based, human; conditions: p53 mt, read-out: IC50 (mean ± SE) after 72 h continuous exposure
Experimental: as §4, §5, §6

HT29 cells = assay: MTT cytotoxicity assay, 72 h; assay type: cell-based, human; conditions: HT29, p53 mt; read-out: IC50 (mean ± SE) after 72 h continuous exposure
Experimental: as §4, §5, §6

ADDP cells = assay: MTT cytotoxicity assay, 72 h; assay type: cell-based, human; conditions: p53 mt, read-out: IC50 (mean ± SE) after 72 h continuous exposure
Experimental: as §4, §5, §6

L1210 cells [4] = assay: MTT cytotoxicity assay, 72 h; assay type: cell-based, murine; conditions: L1210, p53 wt; read-out: IC50 (mean ± SE) after 72 h continuous exposure
Experimental: as §4, §5, §6

`O=C1OC(O)C2C3CCC(O3)C12` (centres unmarked) [MK-4] was tested, and the “Cell Cycle Distribution, G1” value (HL60 cells [1]; HL60, 50 μM, 12 h) was 44.7 percentage of total, the “Cell Cycle Distribution, G2 + M” value (HL60 cells [1]; HL60, 50 μM, 12 h) was 32.3 percentage of total and the “Cell Cycle Distribution, S” value (HL60 cells [1]; HL60, 50 μM, 12 h) was 22.3 percentage of total. The “Cell Cycle Distribution, sub G1” value (HL60 cells [1]; HL60, 50 μM, 12 h) was 1.9 percentage of total, the “Cell Cycle Distribution, G1” value (HL60 cells [1]; HL60, 100 μM, 12 h) was 45.3 percentage of total and the “Cell Cycle Distribution, G2 + M” value (HL60 cells [1]; HL60, 100 μM, 12 h) was 30.6 percentage of total. The “Cell Cycle Distribution, S” value (HL60 cells [1]; HL60, 100 μM, 12 h) was 22.6 percentage of total, the “Cell Cycle Distribution, sub G1” value (HL60 cells [1]; HL60, 100 μM, 12 h) was 2.5 percentage of total and the “Cell Cycle Distribution, G1” value (HL60 cells [1]; HL60, 250 μM, 12 h) was 40.0 percentage of total. For the same compound, the “Cell Cycle Distribution, G2 + M” value (HL60 cells [1]; HL60, 250 μM, 12 h) was 32.0 percentage of total, the “Cell Cycle Distribution, S” value (HL60 cells [1]; HL60, 250 μM, 12 h) was 23.0 percentage of total and the “Cell Cycle Distribution, sub G1” value (HL60 cells [1]; HL60, 250 μM, 12 h) was 6.0 percentage of total. For the same compound, the “Cell Cycle Distribution, G1” value (HL60 cells [1]; HL60, 500 μM, 12 h) was 27.8 percentage of total, the “Cell Cycle Distribution, G2 + M” value (HL60 cells [1]; HL60, 500 μM, 12 h) was 44.4 percentage of total and the “Cell Cycle Distribution, S” value (HL60 cells [1]; HL60, 500 μM, 12 h) was 22.8 percentage of total. The “Cell Cycle Distribution, sub G1” value (HL60 cells [1]; HL60, 500 μM, 12 h) was 6.1 percentage of total, the Cell cycle remark (HL60 cells [1]; HL60, 500 μM, 12 h) was “G2 arrest” and the “Cell cycle response” value (HL60 cells [1]; HL60, 12 h exposure) was “G2 arrest”. The “Cell Cycle Distribution, G1” value (L1210 cells [2]; L1210, 50 μM, 12 h) was 42.0 percentage of total, the “Cell Cycle Distribution, G2 + M” value (L1210 cells [2]; L1210, 50 μM, 12 h) was 32.0 percentage of total and the “Cell Cycle Distribution, S” value (L1210 cells [2]; L1210, 50 μM, 12 h) was 26.9 percentage of total. The “Cell Cycle Distribution, sub G1” value (L1210 cells [2]; L1210, 50 μM, 12 h) was 0.5 percentage of total, the “Cell Cycle Distribution, G1” value (L1210 cells [2]; L1210, 100 μM, 12 h) was 43.2 percentage of total and the “Cell Cycle Distribution, G2 + M” value (L1210 cells [2]; L1210, 100 μM, 12 h) was 32.5 percentage of total. For the same compound, the “Cell Cycle Distribution, S” value (L1210 cells [2]; L1210, 100 μM, 12 h) was 25.4 percentage of total, the “Cell Cycle Distribution, sub G1” value (L1210 cells [2]; L1210, 100 μM, 12 h) was 0.4 percentage of total and the “Cell Cycle Distribution, G1” value (L1210 cells [2]; L1210, 250 μM, 12 h) was 45.7 percentage of total. For the same compound, the “Cell Cycle Distribution, G2 + M” value (L1210 cells [2]; L1210, 250 μM, 12 h) was 30.5 percentage of total, the “Cell Cycle Distribution, S” value (L1210 cells [2]; L1210, 250 μM, 12 h) was 24.6 percentage of total and the “Cell Cycle Distribution, sub G1” value (L1210 cells [2]; L1210, 250 μM, 12 h) was 0.5 percentage of total. The “Cell Cycle Distribution, G1” value (L1210 cells [2]; L1210, 500 μM, 12 h) was 47.5 percentage of total, the “Cell Cycle Distribution, G2 + M” value (L1210 cells [2]; L1210, 500 μM, 12 h) was 33.9 percentage of total and the “Cell Cycle Distribution, S” value (L1210 cells [2]; L1210, 500 μM, 12 h) was 18.6 percentage of total. For the same compound, the “Cell Cycle Distribution, sub G1” value (L1210 cells [2]; L1210, 500 μM, 12 h) was 1.1 percentage of total, the Cell cycle remark (L1210 cells [2]; L1210, 500 μM, 12 h) was “Slight Δ” and the “Cell cycle response” value (L1210 cells [2]; L1210, 12 h exposure) was “G2 arrest”. The IC50 (nine cancer cell lines; colon lines, read-out: IC50 range in human colon cancer cell lines) was 14 to 88 µM, the IC50 (nine cancer cell lines; leukaemia lines, read-out: IC50 range in leukaemia cells) was 393 to 680 µM and the IC50 (nine cancer cell lines; ovarian lines, read-out: IC50 range in ovarian cells) was 275 to 333 µM. It also gave an IC50 (HCT116 cells) of 78 ± 7 µM, an IC50 (WiDr cells) of 15 ± 3 µM and an IC50 (SW480 cells) of 88 ± 5 µM. It also gave an IC50 (HL60 cells [3]) of 393 ± 103 µM, an IC50 (143B cells) of 450 µM and an IC50 (HT29 cells) of 14 µM. For the same compound, the IC50 (ADDP cells) was 275 ± 56 µM and the IC50 (L1210 cells [4]) was 680 ± 97 µM.
